{"source": "paper PMC8230315", "about": "“A Pan-Inhibitor for Protein Arginine Methyltransferase Family Enzymes” (Biomolecules, 2021)", "key": {"TbPRMT7": {"target": "T1, TbPRMT7 (Trypanosoma brucei brucei, UniProt Q582G4)", "T1 construct": "made in house", "assay": "Selectivity SAHH-coupled fluorescence assay, TbPRMT7", "type": "biochemical", "details": "at 1.2 μM", "source_text": "We chose the top four potent compounds (6b and 6l–n) to investigate their selectivities against several in-house methyltransferases including protein arginine methyltransferase TbPRMT7, two members of the protein lysine methyltransferase PKMT (G9a and SETD7), protein N-terminal methyltransferase 1 (NTMT1), and a small molecule methyltransferase nicotinamide N-methyltransferase (NNMT), all of which have a SAM binding site.\nA fluorescence-based SAHH-coupled assay was applied to study the effect of the compound on methyltransferase activity of PRMT7, NTMT1, SETD7, G9a, NNMT, and SAHH. For PRMT7, the assay was performed in a final well volume of 100 μL: 25 mM Tris (pH = 7.5), 50 mM KCl, 0.01% Triton X-100, 5 μM SAHH, 0.2 μM PRMT7, 3 μM AdoMet, and 15 μM ThioGlo1. After incubation for 10 min with the inhibitor, reactions were initiated by the addition of 60 μM H4-21 peptide, and the reaction was monitored for 15 min. […] After incubation for 10 min with the inhibitor, reactions were initiated by the addition of 0.5 μM GPKRIA peptide, and the reaction was monitored for 15 min. […] After incubation for 10 min with the inhibitor, reactions were initiated by the addition of 90 μM H3-21 peptide, and the reaction was monitored for 15 min. […] After incubation for 10 min with the inhibitor, reactions were initiated by the addition of 10 μM nicotinamide, and the reaction was monitored for 18 min. […]"}, "PRMT6": {"target": "T2, PRMT6 (Homo sapiens, UniProt Q96LA8)", "T2 construct": "purchased Reaction Biology", "assay": "HotSpot radioisotope 3H-AdoMet methyltransferase assay, PRMT6", "type": "biochemical", "procedure": "Future studies will focus on obtaining structural information of II757 bound to PRMTs to inform how to connect to a substrate portion to increase both potency and selectivity for each PRMT.\nFigure 6 Selectivity of II757 against the panel of PRMTs. II757 was tested in 10 doses with threefold serial dilution in the HotSpot methyltransferase assay at reaction biology. TEXT PRINTED IN THE PICTURE: II757: IC50 (nM) PRMT1: 16.4; IC50 (nM) PRMT3: 321; IC50 (nM) PRMT4: 5.05; IC50 (nM) PRMT5/MEP50 Complex: 18.2; IC50 (nM) PRMT5 (C449S)/MEP50: 36.6; IC50 (nM) PRMT6: 30.5; IC50 (nM) PRMT7: 555; IC50 (nM) PRMT8: 32.1"}}, "data": [{"compound": "N=C(NCCCSC[C@H]1O[C@@H](n2cnc3c(N)ncnc32)[C@H](O)[C@@H]1O)Nc1cccc(Br)c1", "note": "[Compound 6l, 1-(3-((((2S,3S,4R,5R)-5-(6-amino-9H-purin-9-yl)-3,4-dihydroxytetrahydrofuran-2-yl)methyl)thio)propyl)-3-(3-bromophenyl)guanidine]", "values": [{"measurement": "activity against PRMT7", "setting": "TbPRMT7", "value": "about 30%"}, {"measurement": "IC50", "setting": "PRMT6", "value": 30.5, "unit": "nM"}]}]}
